# Assay results as given in patent publication US7973147B2, “K04-0144 substance and a process for production thereof” (The Kitasato Institute, priority 2006, dated 2011).
# “Also recorded” adds a separate entry of the source. Like-named read-outs stand apart in the source and are kept apart here.
# Assays:
# MRSA 92-1191 = test: MIC, agar plate dilution method; assay type: cell-based, methicillin-resistant Staphylococcus aureus; conditions: Staphylococcus aureus
# Protocol: (§1) Assay of minimum inhibitory concentration (MIC) was performed according to the agar plate dilution method (Method of Japan Society of Chemotherapy, CHEMOTHERAPY 29, 76-79, 1981).
# (§2) Test organisms used were 27 types of microorganisms including clinical isolates of methicillin-resistant Staphylococcus aureus. Each test organism was cultured in Mueller-Hinton broth (2.1% w/v) (DIFCO) at 37° C. for 20 hours, and the cultured cells were suspended to about 10^6 cell counts/ml in the same medium, then was used as the microbial suspension for inoculation. The prepared microbial suspension was smeared by using the microplanter on MHA medium (Mueller-Hinton broth 2.1% (w/v) and agar 1.5%) containing K04-0144A substance, K04-0144B substance or K04-0144C substance, each of which was subjected to two-fold stepwise dilution from 128 μg/ml. After culturing at 37° C. for 20 hours, MIC was determined by macroscopically confirming the growth of microorganisms. Vancomycin, arbekacin and linezolid were used as a comparative control.
# MRSA 70 = test: MIC, agar plate dilution method; assay type: cell-based, methicillin-resistant Staphylococcus aureus; conditions: Staphylococcus aureus
# Protocol: as §1, §2
# MRSA N315 IR94 HR-1 = test: MIC, agar plate dilution method; assay type: cell-based, methicillin-resistant Staphylococcus aureus; conditions: Staphylococcus aureus, 20 h
# Protocol: as §1, §2
# MRSA N315 IR94 = test: MIC, agar plate dilution method; assay type: cell-based, methicillin-resistant Staphylococcus aureus; conditions: Staphylococcus aureus, 20 h
# Protocol: as §1, §2
# Solubility in solvent = assay type: physicochemical; conditions: listed as K04-0144C substance
# P. vulgaris OX-19 = test: MIC, agar plate dilution method; assay type: cell-based; conditions: Proteus vulgaris
# Protocol: as §1, §2
# S. aureus ISP217 = test: MIC, agar plate dilution method; assay type: cell-based; conditions: Staphylococcus aureus
# Protocol: as §1, §2
# S. aureus 8325(pMS97) = test: MIC, agar plate dilution method; assay type: cell-based; conditions: Staphylococcus aureus, 20 h
# Protocol: as §1, §2
# K. pneumoniae NCTN9632 = test: MIC, agar plate dilution method; assay type: cell-based; conditions: Klebsiella pneumoniae
# Protocol: as §1, §2
# E. cloacae IFO13535 = test: MIC, agar plate dilution method; assay type: cell-based; conditions: Enterobacter cloacae
# Protocol: as §1, §2
# S. aureus FDA209P = test: MIC, agar plate dilution method; assay type: cell-based; conditions: Staphylococcus aureus
# Protocol: as §1, §2
# A. calcoaceticus IFO2552 = test: MIC, agar plate dilution method; assay type: cell-based; conditions: Acinetobacter calcoaceticus
# Protocol: as §1, §2
# [1] = tested on: E. facecalis NTCT12201(VanA); test: MIC, agar plate dilution method; assay type: cell-based
# Protocol: as §1, §2
# S. epidermidis IFO12648 = test: MIC, agar plate dilution method; assay type: cell-based; conditions: Staphylococcus epidermidis
# Protocol: as §1, §2
# E. coli NIHJ JC-2 = test: MIC, agar plate dilution method; assay type: cell-based; conditions: Escherichia coli
# Protocol: as §1, §2
# P. aeruginosa 46001 = test: MIC, agar plate dilution method; assay type: cell-based
# Protocol: as §1, §2
# S. aureus Smith = test: MIC, agar plate dilution method; assay type: cell-based; conditions: Staphylococcus aureus
# Protocol: as §1, §2
# M. morganii IID Kono = test: MIC, agar plate dilution method; assay type: cell-based; conditions: Morganella morganii
# Protocol: as §1, §2
# S. aureus ISP447 = test: MIC, agar plate dilution method; assay type: cell-based; conditions: Staphylococcus aureus
# Protocol: as §1, §2
# [2] = tested on: E. faecium NTCT12203(VanA); test: MIC, agar plate dilution method; assay type: cell-based; conditions: Enterococcus faecium
# Protocol: as §1, §2
# P. aeruginosa E-2 = test: MIC, agar plate dilution method; assay type: cell-based; conditions: Pseudomonas aeruginosa
# Protocol: as §1, §2
# S. aureus 8325(pEP2104) = test: MIC, agar plate dilution method; assay type: cell-based; conditions: Staphylococcus aureus, 20 h
# Protocol: as §1, §2
# C. freundii ATCC8090 = test: MIC, agar plate dilution method; assay type: cell-based; conditions: Citrobacter freundii
# Protocol: as §1, §2
# M. luteus ATCC9341 = test: MIC, agar plate dilution method; assay type: cell-based; conditions: Micrococcus luteus
# Protocol: as §1, §2
# S. marcescens IFO12648 = test: MIC, agar plate dilution method; assay type: cell-based; conditions: Serratia marcescens
# Protocol: as §1, §2
# E. aerogenes NCTC10006 = test: MIC, agar plate dilution method; assay type: cell-based; conditions: Klebsiella aerogenes
# Protocol: as §1, §2
# P. mirabilis IFO3849 = test: MIC, agar plate dilution method; assay type: cell-based; conditions: Proteus mirabilis
# Protocol: as §1, §2
# E. faecalis ATCC21212 = test: MIC, agar plate dilution method; assay type: cell-based; conditions: Enterococcus faecalis
# Protocol: as §1, §2
# [3] = tested on: MRSA (Clinical isolate, the Kitasato Hospital, Japan); test: Enhancing action of K04-0144D substance on antibiotic activities, broth microdilution method; assay type: cell-based, methicillin-resistant Staphylococcus aureus
# [4] = tested on: clinical isolate of MRSA (K24 strain); test: MRSA infectious model using silkworms; assay type: in vivo, silkworm; conditions: 25 mg/kg; 72 hours after the inoculation
# Protocol: As an alternative method for in vivo MRSA infection model using animals, the infection system using silkworms has been reported (Kaito et al, Microbial Pathogenesis, 32: 183-190, 2002). Effect of K04-0144A substance was measured according to this method.
# Test organism used was the clinical isolate of MRSA (K24 strain). The MRSA was cultured statically using LB-10 medium (DIFCO) at 37° C. for 18 hours, and a 50 μl of the cultured strain was inoculated into the hemolymph of silkworm, 5 instar, 2nd day, (about 2 g, Ehime sansyu eggs Co., Japan). K04-0144A substance was prepared to a solution of 1 mg/ml, and 50 μl of the solution were administered by using syringe to the dorsal vessel of 5 silkworms infected with MRSA (25 mg/kg). Effect of the K04-0144A substance was evaluated by comparing the survival rate between a group with administering the sample and a group without administering the sample during the raising period of 72 hours after the inoculation. […] Further, all silkworms administered with 50 μl of MRSA bacterial suspension died within 72 hours after the inoculation.
smiles,measurement,setting,value
C=C(C/C=C(\C)CCC=C(C)C)CCC(C)(C)/C=C/CC/C(C)=C\COC(COP(=O)(O)OC1OC(C(N)=O)C(C)(O)C(OC(N)=O)C1OC1OC(CO)C(OC2OC(C)C(OC3OC(C(N)=O)C(O)C(O)C3O)C(O)C2NC(C)=O)C(O)C1NC(C)=O)C(=O)O (centres unmarked) [K04-0144C],MIC,"MRSA 92-1191; MRSA 92-1191, 37° C., 20 hours, read-out: MIC",0.5 µg/mL
same,MIC,"MRSA 70; MRSA 70, 37° C., 20 hours, read-out: MIC",≤ 0.25 µg/mL
same,MIC,MRSA N315 IR94 HR-1,≤ 0.25 µg/mL
same,MIC,MRSA N315 IR94,≤ 0.25 µg/mL
same,Solubility in solvent,Solubility in solvent,"Soluble in water, methanol and dimethyl sulfoxide; also recorded: Insoluble in acetone, chloroform and n-hexane"
same,MIC,"P. vulgaris OX-19; OX19, P. vulgaris OX-19, 37° C., 20 hours, read-out: MIC",4 µg/mL
same,MIC,"S. aureus ISP217; S. aureus ISP217, 37° C., 20 hours, read-out: MIC",≤ 0.25 µg/mL
same,MIC,S. aureus 8325(pMS97),0.5 µg/mL
same,MIC,"K. pneumoniae NCTN9632; K. pneumoniae NCTN9632, 37° C., 20 hours, read-out: MIC",8 µg/mL
same,MIC,"E. cloacae IFO13535; E. cloacae IFO13535, 37° C., 20 hours, read-out: MIC",32 µg/mL
same,MIC,"S. aureus FDA209P; S. aureus FDA209P, 37° C., 20 hours, read-out: MIC",1 µg/mL
same,MIC,"A. calcoaceticus IFO2552; A. calcoaceticus IFO2552, 37° C., 20 hours, read-out: MIC",8 µg/mL
same,MIC,"[1]; E. facecalis NTCT12201(VanA), 37° C., 20 hours, read-out: MIC",0.5 µg/mL
same,MIC,"S. epidermidis IFO12648; S. epidermidis IFO12648, 37° C., 20 hours, read-out: MIC",1 µg/mL
same,MIC,"E. coli NIHJ JC-2; NIHJJC2, E. coli NIHJ JC-2, 37° C., 20 hours, read-out: MIC",8 µg/mL
same,MIC,"P. aeruginosa 46001; Pseudomonas aeruginosa, P. aeruginosa 46001, 37° C., 20 hours, read-out: MIC",32 µg/mL
same,MIC,"S. aureus Smith; S. aureus Smith, 37° C., 20 hours, read-out: MIC",1 µg/mL
same,MIC,"M. morganii IID Kono; M. morganii IID Kono, 37° C., 20 hours, read-out: MIC",32 µg/mL
same,MIC,"S. aureus ISP447; S. aureus ISP447, 37° C., 20 hours, read-out: MIC",≤ 0.25 µg/mL
same,MIC,"[2]; E. faecium NTCT12203(VanA), 37° C., 20 hours, read-out: MIC",64 µg/mL
same,MIC,"P. aeruginosa E-2; E2, P. aeruginosa E-2, 37° C., 20 hours, read-out: MIC",32 µg/mL
same,MIC,S. aureus 8325(pEP2104),0.5 µg/mL
same,MIC,"C. freundii ATCC8090; C. freundii ATCC8090, 37° C., 20 hours, read-out: MIC",64 µg/mL
same,MIC,"M. luteus ATCC9341; M. luteus ATCC9341, 37° C., 20 hours, read-out: MIC",> 128 µg/mL
same,MIC,"S. marcescens IFO12648; S. marcescens IFO12648, 37° C., 20 hours, read-out: MIC",32 µg/mL
same,MIC,"E. aerogenes NCTC10006; E. aerogenes NCTC10006, 37° C., 20 hours, read-out: MIC",32 µg/mL
same,MIC,"P. mirabilis IFO3849; P. mirabilis IFO3849, 37° C., 20 hours, read-out: MIC",8 µg/mL
same,MIC,"E. faecalis ATCC21212; E. faecalis ATCC21212, 37° C., 20 hours, read-out: MIC",0.5 µg/mL
"CN[C@H](CC(C)C)C(=O)N[C@H]1C(=O)N[C@@H](CC(N)=O)C(=O)N[C@H]2C(=O)N[C@H]3C(=O)N[C@H](C(=O)N[C@H](C(=O)O)c4cc(O)cc(O)c4-c4cc3ccc4O)[C@H](O)c3ccc(c(Cl)c3)Oc3cc2cc(c3O[C@@H]2O[C@H](CO)[C@@H](O)[C@H](O)[C@H]2O[C@H]2C[C@](C)(N)[C@H](O)[C@H](C)O2)Oc2ccc(cc2Cl)[C@H]1O [vancomycin, reference compound]",enhancing action of K04-0144D substance on the antibiotic's activity,[3]; K04-0144D substance 16 μg/ml,no enhancing action
same,Ratio (−/+K04-0144D),[3]; MIC alone / MIC with K04-0144D substance 16 μg/ml,1
same,MIC,"[3]; Staphylococcus aureus, MRSA, read-out: Minimum Inhibitory Concentration (−)",1 µg/mL
same,MIC,"MRSA 92-1191; MRSA, 20 h",1 µg/mL
same,MIC,"MRSA 70; MRSA, 20 h",0.5 µg/mL
same,MIC,MRSA N315 IR94 HR-1,0.5 µg/mL
same,MIC,MRSA N315 IR94,0.5 µg/mL
same,MIC,"P. vulgaris OX-19; OX19, 20 h",> 32 µg/mL
same,MIC,"S. aureus ISP217; ISP217, 20 h",1 µg/mL
same,MIC,S. aureus 8325(pMS97),1 µg/mL
same,MIC,"K. pneumoniae NCTN9632; NCTN9632, 20 h",> 32 µg/mL
same,MIC,"E. cloacae IFO13535; IFO13535, 20 h",> 32 µg/mL
same,MIC,"S. aureus FDA209P; FDA209P, 20 h",1 µg/mL
same,MIC,"A. calcoaceticus IFO2552; IFO2552, 20 h",> 32 µg/mL
same,MIC,[1]; 20 h,> 32 µg/mL
same,MIC,"S. epidermidis IFO12648; IFO12648, 20 h",1 µg/mL
same,MIC,"E. coli NIHJ JC-2; NIHJJC2, 20 h",> 32 µg/mL
same,MIC,"P. aeruginosa 46001; Pseudomonas aeruginosa, 46001, 20 h",> 32 µg/mL
same,MIC,S. aureus Smith; 20 h,1 µg/mL
same,MIC,M. morganii IID Kono; 20 h,> 32 µg/mL
same,MIC,"S. aureus ISP447; ISP447, 20 h",1 µg/mL
same,MIC,[2]; 20 h,> 32 µg/mL
same,MIC,"P. aeruginosa E-2; E2, 20 h",> 32 µg/mL
same,MIC,S. aureus 8325(pEP2104),2 µg/mL
same,MIC,"C. freundii ATCC8090; ATCC8090, 20 h",> 32 µg/mL
same,MIC,"M. luteus ATCC9341; ATCC9341, 20 h",1 µg/mL
same,MIC,"S. marcescens IFO12648; IFO12648, 20 h",> 32 µg/mL
same,MIC,"E. aerogenes NCTC10006; NCTC10006, 20 h",> 32 µg/mL
same,MIC,"P. mirabilis IFO3849; IFO3849, 20 h",> 32 µg/mL
same,MIC,"E. faecalis ATCC21212; ATCC21212, 20 h",4 µg/mL
same,survival of silkworms infected with MRSA,[4],survived after 72 hours of the inoculation
